Here are results for 28 compounds from US20130040935A1, “CYCLIC KETO-ENOLS FOR THERAPY” (BAYER INTELLECTUAL PROPERTY GMBH, priority 2010, published 2013).

Structures are written as SMILES. Like-named read-outs stand apart in the source and are kept apart here. A value given as a limit tells only on which side of the number the result lay.

Assay [1] has as its target T1, human ACC1 (acetyl-coenzyme A carboxylase alpha transcript variant 1) (Homo sapiens, UniProt Q13085).
T1 construct: FLAG (C); made in house; host or cells: baculovirus-infected insect cells (Hi5)
Kind of assay: Human ACC1 enzyme assay, Assay B1 (ADP-Glo). The format is biochemical. A general note: ADP-Glo turns the ADP formed in a reaction into a luminescent signal.

The subject of a further assay is MCF7. Nature of the assay: Cell proliferation assay (CellTiter-Glo, 96 h), MCF7. The following applies: Homo sapiens. The format is cell-based. The method, then: In accordance with the invention, the substances were tested in cell-based assays for the ability of the substances of inhibiting tumour cell proliferation after a 96-hour incubation with the substance. Cell viability was tested using the CellTiter-Glo® luminescent cell viability assay (Promega). The cells were sown at a density of 2000-5000 cells/well (depending on the cell line) in 100 μl growth medium on 96-well microtitre plates. For each cell line examined, cells were sown on a separate plate to determine the luminescence at t=0 hours and t=96 hours. After overnight incubation at 37° C., the luminescence values for the t=0 samples were determined. The dose plates for the t=96 hours points in time were treated with substances diluted with growth medium. The cells were then incubated at 37° C. for 96 hours, and the luminescence values for the t=96 hours sample were then determined. For data analysis, the t=0 values were subtracted from the t=96 hour values for treated and untreated samples. The differences in luminescence in percent between substance-treated samples and control values were used to determine the growth inhibition in percent.
The substances were tested in the following cell lines which represent the stated indications in an exemplary manner: […]

For assay [2], the target named is human ACC2 (acetyl-coenzyme A carboxylase 2) (Homo sapiens, UniProt O00763). Nature of the assay: Human ACC2 enzyme assay, Assay B2 (ADP-Glo).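 Also: human ACC2 activity read as ADP product, detected by luciferase glow luminescence after residual ATP removal, enzyme near 2 ng/µl in linear range, detection steps at 22 °C.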
Sequence of human ACC2 (acetyl-coenzyme A carboxylase 2) (O00763 27-2458 limits assumed): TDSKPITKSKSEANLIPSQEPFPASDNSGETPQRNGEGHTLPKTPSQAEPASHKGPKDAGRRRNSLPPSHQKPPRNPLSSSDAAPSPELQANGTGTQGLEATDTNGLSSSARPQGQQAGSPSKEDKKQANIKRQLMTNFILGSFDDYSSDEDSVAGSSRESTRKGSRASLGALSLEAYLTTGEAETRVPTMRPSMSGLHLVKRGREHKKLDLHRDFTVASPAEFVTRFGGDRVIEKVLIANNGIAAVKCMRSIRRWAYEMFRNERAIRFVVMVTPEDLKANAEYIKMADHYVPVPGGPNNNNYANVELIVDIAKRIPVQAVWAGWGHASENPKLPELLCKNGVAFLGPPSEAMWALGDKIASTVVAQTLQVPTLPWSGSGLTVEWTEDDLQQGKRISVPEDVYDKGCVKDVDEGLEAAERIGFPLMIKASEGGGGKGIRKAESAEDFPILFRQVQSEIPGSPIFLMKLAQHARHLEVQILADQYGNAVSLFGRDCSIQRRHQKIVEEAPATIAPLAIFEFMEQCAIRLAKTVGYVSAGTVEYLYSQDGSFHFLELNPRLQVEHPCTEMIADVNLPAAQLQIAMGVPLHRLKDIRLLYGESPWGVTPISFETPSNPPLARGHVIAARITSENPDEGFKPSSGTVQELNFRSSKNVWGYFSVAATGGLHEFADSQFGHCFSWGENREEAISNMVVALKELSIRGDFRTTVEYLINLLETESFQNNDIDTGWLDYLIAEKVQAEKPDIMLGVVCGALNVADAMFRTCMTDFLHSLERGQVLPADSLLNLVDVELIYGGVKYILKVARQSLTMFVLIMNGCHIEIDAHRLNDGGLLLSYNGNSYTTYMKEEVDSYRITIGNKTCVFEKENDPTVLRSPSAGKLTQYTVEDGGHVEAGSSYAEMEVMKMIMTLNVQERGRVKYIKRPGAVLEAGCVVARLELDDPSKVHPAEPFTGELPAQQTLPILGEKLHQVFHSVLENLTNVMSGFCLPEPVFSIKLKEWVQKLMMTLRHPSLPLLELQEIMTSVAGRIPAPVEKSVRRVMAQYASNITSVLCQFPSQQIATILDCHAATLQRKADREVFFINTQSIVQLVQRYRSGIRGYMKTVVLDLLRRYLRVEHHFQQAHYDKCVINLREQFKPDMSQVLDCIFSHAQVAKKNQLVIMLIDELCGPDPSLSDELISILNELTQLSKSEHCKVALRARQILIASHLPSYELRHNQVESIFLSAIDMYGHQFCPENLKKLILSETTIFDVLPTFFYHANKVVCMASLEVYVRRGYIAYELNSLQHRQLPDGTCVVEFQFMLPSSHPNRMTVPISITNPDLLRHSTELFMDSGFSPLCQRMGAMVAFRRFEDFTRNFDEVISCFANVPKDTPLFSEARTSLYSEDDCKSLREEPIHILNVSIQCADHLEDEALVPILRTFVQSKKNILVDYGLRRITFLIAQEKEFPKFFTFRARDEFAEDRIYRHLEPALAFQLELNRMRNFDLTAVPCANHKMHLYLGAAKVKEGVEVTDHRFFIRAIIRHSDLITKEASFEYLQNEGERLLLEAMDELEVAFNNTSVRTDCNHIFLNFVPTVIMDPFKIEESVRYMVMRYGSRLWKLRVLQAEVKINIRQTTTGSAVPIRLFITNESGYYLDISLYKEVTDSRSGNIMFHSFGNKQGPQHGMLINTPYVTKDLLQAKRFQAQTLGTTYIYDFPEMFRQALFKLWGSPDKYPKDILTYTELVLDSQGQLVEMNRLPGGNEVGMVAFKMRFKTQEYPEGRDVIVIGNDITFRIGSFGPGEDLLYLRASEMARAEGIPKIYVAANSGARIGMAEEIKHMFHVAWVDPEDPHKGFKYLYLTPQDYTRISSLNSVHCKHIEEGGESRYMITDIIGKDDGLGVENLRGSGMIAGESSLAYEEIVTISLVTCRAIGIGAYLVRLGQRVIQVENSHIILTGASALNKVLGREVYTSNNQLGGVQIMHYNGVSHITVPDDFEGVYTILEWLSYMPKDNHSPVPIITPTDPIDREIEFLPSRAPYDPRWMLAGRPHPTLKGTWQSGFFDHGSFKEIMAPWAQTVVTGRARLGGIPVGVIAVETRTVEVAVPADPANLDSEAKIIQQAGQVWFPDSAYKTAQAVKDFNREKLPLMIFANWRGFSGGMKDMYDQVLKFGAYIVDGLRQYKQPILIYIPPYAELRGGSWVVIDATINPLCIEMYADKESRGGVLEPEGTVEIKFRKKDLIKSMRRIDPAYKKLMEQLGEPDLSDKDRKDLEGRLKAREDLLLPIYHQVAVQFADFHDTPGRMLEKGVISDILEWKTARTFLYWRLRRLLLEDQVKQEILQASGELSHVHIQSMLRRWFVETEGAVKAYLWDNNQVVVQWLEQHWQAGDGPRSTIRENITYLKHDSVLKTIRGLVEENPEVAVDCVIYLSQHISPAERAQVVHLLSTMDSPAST
Description: The hACC2-inhibitory action of the substances of the present invention was measured in the hACC2 assay described in the paragraphs below.
Essentially, the enzyme activity is measured by quantifying the adenosine diphosphate (ADP) formed as a byproduct of the enzyme reactions using the ADP-Glo™ detection system from Promega. In this test, initially the adenosine triphosphate (ATP) not consumed in the enzyme reaction is converted quantitatively with an adenylate cyclase (“ADP-GLO reagent”) into cAMP, the adenylate cyclase is then stopped and (“kinase detection reagent”) the ADP formed is subsequently converted into ATP, which is converted in a luciferase-based reaction into a glow luminescence signal.
The concentration of the hACC2 was adapted to the respective activity of the enzyme and adjusted such that the assay operated in the linear range. Typical concentrations were in the range of 2 ng/μl. […] The amount of light emitted was taken as a measure for the amount of ADP formed and thus for the enzyme activity of the hACC2.
Setting [3] is: Assay B1, read-out: ACC 1 (=B1) IC50.
[4] abbreviates: MCF7, Table 7, 96-hour incubation.
Setting [5] is: MCF7, Table 9a, 96-hour incubation.

With `Cc1ccc(-c2ccc(Cl)cc2)cc1C1=C(O)[C@@]2(CC[C@H](OCC(C)C)C2)NC1=O` (relative stereo) [1-49, rel-(5R,7R)-3-(4′-chloro-4-methylbiphenyl-3-yl)-4-hydroxy-7-(2-methylpropoxy)-1-azaspiro[4.4]non-3-en-2-one], the IC50 was 10600 nM in assay [1] (setting [3]), 640 nM in the assay on MCF7 (setting [4]) and more than 20000 nM in assay [2].
For `Cc1ccc(-c2ccc(Cl)cc2)c(C)c1C1=C(O)C2(CCC(C)CC2)NC1=O` (stereo not drawn) [1-4, 3-(4′-chloro-2,4-dimethylbiphenyl-3-yl)-4-hydroxy-8-methyl-1-azaspiro[4.5]dec-3-en-2-one], the IC50 in assay [1] (setting [3]) came out at 357 nM; in the assay on MCF7 (setting [4]) it was 54 nM; in assay [2], 558 nM.
For the compound `Cc1cc(C)c(-c2ccc(Cl)cc2)cc1C1=C(O)C2(CCCOC2)NC1=O` (stereo not drawn) [1-8, 3-(4′-chloro-4,6-dimethylbiphenyl-3-yl)-4-hydroxy-7-oxa-1-azaspiro[4.5]dec-3-en-2-one], the IC50 in assay [1] (setting [3]) was 5810 nM; in the assay with MCF7 (setting [4]), 191 nM; in assay [2] it was more than 20000 nM.
Take `COC1CCC2(CC1)NC(=O)C(c1c(C)cc(C)c(-c3ccc(Cl)cc3)c1C)=C2O` (stereo not drawn) [1-9, 3-(4′-chloro-2,4,6-trimethylbiphenyl-3-yl)-4-hydroxy-8-methoxy-1-azaspiro[4.5]dec-3-en-2-one]: the IC50 in assay [1] was found to be 11400 nM; in the assay with MCF7 (setting [4]), 287 nM; in assay [2], 276 nM.
As to `Cc1ccc(-c2ccc(Cl)cc2)c(C)c1C1=C(O)C2(CCCOC2)NC1=O` (stereo not drawn) [1-10, 3-(4′-chloro-2,4-dimethylbiphenyl-3-yl)-4-hydroxy-7-oxa-1-azaspiro[4.5]dec-3-en-2-one], the half-maximal inhibitory concentration (IC50) in assay [1] came out at 500 nM; in the assay with MCF7 (setting [4]), 1300 nM; in assay [2] it was 9460 nM.
With `Cc1ccc(-c2ccc(C(F)(F)F)cc2)cc1C1=C(O)C2(CCCCC2)NC1=O` [1-12, 4-hydroxy-3-[4 methyl-4′-(trifluoromethyl)biphenyl-3-yl]-1-azaspiro[4.5]dec-3-en-2-one], the values for the IC50 (in assay [1] (setting [3]); in the assay with MCF7 (setting [4]); in assay [2]) were 871 nM, 322 nM and more than 20000 nM, respectively.
Regarding `Cc1ccc(-c2ccc(C)c(C3=C(O)C4(CCCCC4)NC3=O)c2)cc1` [1-13, 3-(4,4′-dimethylbiphenyl-3-yl)-4-hydroxy-1-azaspiro[4.5]dec-3-en-2-one], the IC50 in assay [1] (setting [3]) was 216 nM; in the assay on MCF7 (setting [4]), 410 nM; in assay [2], more than 20000 nM.
For the compound `Cc1ccc(-c2ccc(Cl)cc2)cc1C1=C(O)C2CSCCN2C1=O` (stereo not drawn) [1-21, 7-(4′-chloro-4-methylbiphenyl-3-yl)-8-hydroxy-1,3,4,8a-tetrahydro-6H-pyrrolo[2,1-c][1,4]thiazin-6-one], the IC50 was 630 nM in assay [1], 392 nM with MCF7 (setting [4]) and 10300 nM in assay [2].
Consider `Cc1ccc(-c2ccc(Cl)cc2)cc1C1=C(O)CN(C2CCCCC2)C1=O` [1-22, 3-(4′-chloro-4-methylbiphenyl-3-yl)-1-cyclohexyl-4-hydroxy-1,5-dihydro-2H-pyrrol-2-one], for which the IC50 in assay [1] (setting [3]) came out at 2680 nM; with MCF7 (setting [4]) it was 436 nM; in assay [2] it was 16300 nM.
The like results for `Cc1ccc(-c2ccc(Cl)cc2)cc1C1=C(O)C2(CCCCCCC2)NC1=O` [1-23, 3-(4′-chloro-4-methylbiphenyl-3-yl)-4-hydroxy-1-azaspiro[4.7]dodec-3-en-2-one] were, in that order, 459 nM, 262 nM and 2330 nM.
On to `Cc1ccc(-c2ccc(Cl)cc2)cc1C1=C(O)C2(CCCCCC2)NC1=O` [1-26, 3-(4′-chloro-4-methylbiphenyl-3-yl)-4-hydroxy-1-azaspiro[4.6]undec-3-en-2-one], for which the IC50 in assay [1] (setting [3]) came to 367 nM; in the assay with MCF7 (setting [4]), 188 nM; in assay [2], 3090 nM.
Turning to `Cc1ccc(-c2ccc(F)cc2)cc1C1=C(O)C2(CCC(OCC(F)(F)F)CC2)NC1=O` (stereo not drawn) [1-32, 3-(4′-fluoro-4-methylbiphenyl-3-yl)-4-hydroxy-8-(2,2,2-trifluoroethoxy)-1-azaspiro[4.5]dec-3-en-2-one], the IC50 came out at 516 nM in assay [1] (setting [3]), 107 nM in the assay on MCF7 (setting [4]) and 19000 nM in assay [2].
With `Cc1ccc(-c2ccc(Cl)cc2)c(C)c1C1=C(O)C2(CCC3(CCCO3)CC2)NC1=O` (stereo not drawn) [1-34, 11-(4′-chloro-2,4-dimethylbiphenyl-3-yl)-12-hydroxy-1-oxa-9-azadispiro[4.2.4.2]tetradec-11-en-10-one], the results for the IC50 (in assay [1] (setting [3]); in the assay on MCF7 (setting [4]); in assay [2]) were 297 nM, 112 nM and 11400 nM, respectively.
Regarding `CO[C@H]1CC[C@]2(CC1)NC(=O)C(c1c(C)cc(C)c(-c3ccc(F)cc3)c1C)=C2O` [1-42, (5s,8s)-3-(4′-fluoro-2,4,6-trimethylbiphenyl-3-yl)-4-hydroxy-8-methoxy-1-azaspiro[4.5]dec-3-en-2-one], 1280 nM corresponded to half-maximal inhibition with MCF7 (setting [4]) (IC50).
On to `CO[C@H]1CC[C@]2(CC1)NC(=O)C(c1cc(-c3ccc(F)c(Cl)c3)ccc1C)=C2O` [1-43, (5s,8s)-3-(3′-chloro-4′-fluoro-4-methylbiphenyl-3-yl)-4-hydroxy-8-methoxy-1-azaspiro[4.5]dec-3-en-2-one], for which the IC50 in assay [1] (setting [3]) was 4930 nM; in the assay on MCF7 (setting [4]), 1220 nM; in assay [2] it was more than 20000 nM.
For `CO[C@H]1CC[C@]2(CC1)NC(=O)C(c1c(C)ccc(-c3ccc(F)cc3)c1C)=C2O` [1-45, (5s,8s)-3-(4′-fluoro-2,4-dimethylbiphenyl-3-yl)-4-hydroxy-8-methoxy-1-azaspiro[4.5]dec-3-en-2-one], the IC50 in assay [1] came out at 701 nM; in the assay with MCF7 (setting [4]), 626 nM; in assay [2], 8830 nM.
For `COC1CCC2(C1)NC(=O)C(c1c(C)ccc(-c3ccc(Cl)cc3)c1C)=C2O` (stereo not drawn) [1-48, 3-(4′-chloro-2,4-dimethylbiphenyl-3-yl)-4-hydroxy-7-methoxy-1-azaspiro[4.4]non-3-en-2-one], the IC50 in assay [1] was 1560 nM; in the assay on MCF7 (setting [4]) it was 852 nM; in assay [2] it was 10400 nM.
Consider `COCC1CCCC2(C1)NC(=O)C(c1cc(-c3ccc(Cl)cc3)ccc1C)=C2O` (stereo not drawn) [1-51, 3-(4′-chloro-4-methylbiphenyl-3-yl)-4-hydroxy-7-(methoxymethyl)-1-azaspiro[4.5]dec-3-en-2-one], for which the values for the IC50 (in assay [1]; in the assay on MCF7 (setting [4]); in assay [2]) were 415 nM, 253 nM and 5450 nM, respectively.
As for `COCC1CCCC2(C1)NC(=O)C(c1cc(-c3ccc(Cl)cc3)ccc1Cl)=C2O` (stereo not drawn) [1-52, 3-(4,4′-dichlorobiphenyl-3-yl)-4-hydroxy-7-(methoxymethyl)-1-azaspiro[4.5]dec-3-en-2-one], the results for the IC50 (in assay [1]; with MCF7 (setting [4]); in assay [2]) were 1790 nM, 739 nM and 16000 nM, respectively.
`COCCC1CCC2(CC1)NC(=O)C(c1c(C)ccc(-c3ccc(Cl)cc3)c1C)=C2O` (stereo not drawn) [1-57, 3-(4′-chloro-2,4-dimethylbiphenyl-3-yl)-4-hydroxy-8-(2-methoxyethyl)-1-azaspiro[4.5]dec-3-en-2-one]: the IC50 in assay [1] came to 1290 nM; with MCF7 (setting [4]), 250 nM; in assay [2] it was 1680 nM.
`COC1CCC2(CC1)OC(=O)C(c1c(C)ccc(-c3ccc(Cl)cc3)c1C)=C2O` (stereo not drawn) [2-34, 3-(4′-chloro-2,4-dimethylbiphenyl-3-yl)-4-hydroxy-8-methoxy-1-oxaspiro[4.5]dec-3-en-2-one] gave an IC50 in the assay on MCF7 (MCF7 cells) of 429 nM.
On to `Cc1ccc(-c2ccc(Cl)cc2)cc1C1=C(O)C2(CCCCC2)SC1=O` [3-2, 3-(4′-chloro-4-methylbiphenyl-3-yl)-4-hydroxy-1-thiaspiro[4.5]dec-3-en-2-one], for which, in the assay on MCF7 (setting [5]), half-maximal inhibition (IC50) required 461 nM.
Take `Cc1ccc(-c2ccc(Cl)cc2)cc1C1=C(O)CC2(CCCCC2)CC1=O` [7-2, 3-(4′-chloro-4-methylbiphenyl-3-yl)-4-hydroxyspiro[5.5]undec-3-en-2-one]: the IC50 in assay [1] (setting [3]) turned out to be 501 nM; with MCF7 (setting [5]), 1210 nM.
With `Cc1ccc(-c2ccc(Cl)cc2)cc1C1=C(O)CC(C)(C)CC1=O` [7-5, 2-(4′-chloro-4-methylbiphenyl-3-yl)-3-hydroxy-5,5-dimethylcyclohex-2-en-1-one], the IC50 in assay [1] stood at 906 nM; in the assay with MCF7 (setting [5]), 992 nM.
`O=C1C(c2cc(-c3ccc(Cl)cc3)ccc2Cl)C(=O)N2CCCCN12` [8-2, 2-(4,4′-dichlorobiphenyl-3-yl)tetrahydro-1H-pyrazolo[1,2-a]pyridazine-1,3(2H)-dione]: the values for the IC50 (in assay [1]; in the assay on MCF7 (setting [5])) were 401 nM and 878 nM, respectively.
Regarding `Cc1ccc(-c2ccc(Cl)cc2)cc1C1=C(O)CC(C)(C)NC1=O` [9-1, 3-(4′-chloro-4-methylbiphenyl-3-yl)-4-hydroxy-6,6-dimethyl-5,6-dihydropyridin-2(1H)-one], the values for the IC50 (in assay [1] (setting [3]); in the assay on MCF7 (MCF7 cells)) were 3760 nM and 1260 nM, respectively.
With `Cc1ccc(-c2ccc(Cl)cc2)cc1C1=C(O)CC(C)(C)N(C)C1=O` [9-4, 3-(4′-chloro-4-methylbiphenyl-3-yl)-4-hydroxy-1,6,6-trimethyl-5,6-], the IC50 in assay [1] (setting [3]) was found to be 2540 nM; in the assay on MCF7 (MCF7 cells) it was 3440 nM.
In the case of `Cc1ccc(-c2ccc(Cl)cc2)cc1C1C(=O)N(C)OC(C)(C)C1=O` (stereo not drawn) [11-1, 4-(4′-chloro-4-methylbiphenyl-3-yl)-2,6,6-trimethyl-1,2-oxazinane-3,5-dione], the IC50 in assay [1] is 19200 nM; with MCF7 (MCF7 cells) it was 3330 nM.

For orientation: IC50 means the concentration at which inhibition is half-maximal.
